{"source": "paper PMC6736568", "about": "“Discovery of Novel Anti-cryptosporidial Activities From Natural Products by in vitro High-Throughput Phenotypic Screening” (Frontiers in Microbiology, 2019)", "key": {"Cryptosporidium parvum": {"system": "Cryptosporidium parvum", "experiment": "qRT-PCR assay of the growth of C. parvum in vitro in HCT-8 host cells (primary and secondary screening, EC50)", "format": "cell-based", "conditions": "for Inhibition (%): primary screening at 10 uM; for % Inhibition (3.3 uM): secondary screening at 3.3 uM"}, "HCT-8 host cells (Hs18S)": {"system": "HCT-8 host cells (Hs18S)", "conditions": "for Hs18S ΔCT: treated vs control"}, "[1]": {"conditions": "primary screening at 10 uM, from Hs18S ΔCT"}}, "note": "Read-outs that look alike come from different tables or passages of the source."}
{"smiles": "COc1ccc(-c2oc3cc(OC)c(OC)c(OC)c3c(=O)c2OC)cc1OC", "note": "[HEXAMETHYLQUERCETAGETIN]", "values": [{"measurement": "Inhibition (%)", "setting": "Cryptosporidium parvum", "result": 95.76, "unit": "%"}, {"measurement": "% Inhibition (3.3 uM)", "setting": "Cryptosporidium parvum", "result": -42, "unit": "%"}, {"measurement": "Cytotoxicity (%)", "setting": "HCT-8 host cells (Hs18S); [1]", "result": 50.3, "unit": "%"}, {"measurement": "Hs18S ΔCT", "setting": "HCT-8 host cells (Hs18S); primary screening at 10 uM", "result": 1.01}]}
{"smiles": "O=c1cc(-c2cc(O)c(O)c(O)c2)oc2cc(O)cc(O)c12", "note": "[HIERACIN]", "values": [{"measurement": "Inhibition (%)", "setting": "Cryptosporidium parvum", "result": -2.75, "unit": "%"}, {"measurement": "Cytotoxicity (%)", "setting": "HCT-8 host cells (Hs18S); 10 µM", "result": 31.0, "unit": "%"}]}
{"smiles": "COc1ccc2c(c1OC)C(=O)O[C@@H]2[C@H]1c2cc3c(cc2CCN1C)OCO3", "note": "[HYDRASTINE (1R, 9S)]", "values": [{"measurement": "Inhibition (%)", "setting": "Cryptosporidium parvum", "result": -23.62, "unit": "%"}, {"measurement": "Hs18S ΔCT", "setting": "HCT-8 host cells (Hs18S); primary screening at 10 uM", "result": -0.18}]}
{"smiles": "CC(=O)[C@@]1(O)CC[C@H]2[C@@H]3CCC4=CC(=O)CC[C@]4(C)[C@H]3CC[C@@]21C", "note": "[HYDROXYPROGESTERONE]", "values": [{"measurement": "Inhibition (%)", "setting": "Cryptosporidium parvum", "result": -50.17, "unit": "%"}, {"measurement": "Cytotoxicity (%)", "setting": "HCT-8 host cells (Hs18S); [1]", "result": 22.7, "unit": "%"}, {"measurement": "Hs18S ΔCT", "setting": "HCT-8 host cells (Hs18S); primary screening at 10 uM", "result": 0.37}]}
{"smiles": "COc1ccc2c(=O)c(-c3ccc(O)cc3)coc2c1", "note": "[ISOFORMONONETIN]", "values": [{"measurement": "Inhibition (%)", "setting": "Cryptosporidium parvum", "result": -7.36, "unit": "%"}, {"measurement": "Cytotoxicity (%)", "setting": "HCT-8 host cells (Hs18S); [1]", "result": -21.7, "unit": "%"}, {"measurement": "Hs18S ΔCT", "setting": "HCT-8 host cells (Hs18S); primary screening at 10 uM", "result": -0.28}]}
{"smiles": "CC1(C)C=Cc2c(c3c(c4c(=O)c(-c5ccc(O)cc5)coc24)OC(C)(C)CC3)O1", "note": "[ISOOSAJIN]", "values": [{"measurement": "Inhibition (%)", "setting": "Cryptosporidium parvum", "result": 96.83, "unit": "%"}, {"measurement": "% Inhibition (3.3 uM)", "setting": "Cryptosporidium parvum", "result": 39, "unit": "%"}, {"measurement": "Cytotoxicity (%)", "setting": "HCT-8 host cells (Hs18S); [1]", "result": -18.5, "unit": "%"}, {"measurement": "Hs18S ΔCT", "setting": "HCT-8 host cells (Hs18S); primary screening at 10 uM", "result": -0.24}]}
{"smiles": "C[C@H]1O[C@H](OC2[C@@H](O)[C@@H](O)C(O)[C@H](O)[C@H]2O)[C@@H](N)C[C@@H]1N=C(N)C(=O)O.Cl", "note": "(stereo partly shown) [KASUGAMYCIN HYDROCHLORIDE]", "values": [{"measurement": "Inhibition (%)", "setting": "Cryptosporidium parvum", "result": 47.53, "unit": "%"}, {"measurement": "Cytotoxicity (%)", "setting": "HCT-8 host cells (Hs18S); [1]", "result": -1.2, "unit": "%"}, {"measurement": "Hs18S ΔCT", "setting": "HCT-8 host cells (Hs18S); primary screening at 10 uM", "result": -0.02}]}
{"smiles": "C=CCSC[C@H](N)C(=O)O", "note": "[L-DEOXYALLIIN]", "values": [{"measurement": "Inhibition (%)", "setting": "Cryptosporidium parvum", "result": 38.80, "unit": "%"}, {"measurement": "Cytotoxicity (%)", "setting": "HCT-8 host cells (Hs18S); [1]", "result": -21.9, "unit": "%"}, {"measurement": "Hs18S ΔCT", "setting": "HCT-8 host cells (Hs18S); primary screening at 10 uM", "result": -0.29}]}
{"smiles": "CC(=O)NCCc1ccc(O)c(-c2c(O)c(O)c3c(c2O)C(=O)c2c(cc(O)c(C(=O)O)c2C(=O)O)C3=O)c1", "note": "[LACCAIC ACID A]", "values": [{"measurement": "Inhibition (%)", "setting": "Cryptosporidium parvum", "result": 21.81, "unit": "%"}, {"measurement": "Cytotoxicity (%)", "setting": "HCT-8 host cells (Hs18S); [1]", "result": -6.6, "unit": "%"}]}
{"smiles": "O=C(O)[C@H](O)[C@@H](O)[C@H](O[C@@H]1O[C@H](CO)[C@H](O)[C@H](O)[C@H]1O)[C@H](O)CO", "note": "[LACTOBIONIC ACID]", "values": [{"measurement": "Inhibition (%)", "setting": "Cryptosporidium parvum", "result": -17.48, "unit": "%"}, {"measurement": "Cytotoxicity (%)", "setting": "HCT-8 host cells (Hs18S); [1]", "result": -27.5, "unit": "%"}, {"measurement": "Hs18S ΔCT", "setting": "HCT-8 host cells (Hs18S); primary screening at 10 uM", "result": -0.35}]}
{"smiles": "O.OC[C@H]1O[C@@H](O[C@H]2[C@H](O)[C@@H](O)[C@@H](O)O[C@@H]2CO)[C@H](O)[C@@H](O)[C@H]1O", "note": "[LACTOSE MONOHYDRATE]", "values": [{"measurement": "Inhibition (%)", "setting": "Cryptosporidium parvum", "result": 31.71, "unit": "%"}, {"measurement": "Hs18S ΔCT", "setting": "HCT-8 host cells (Hs18S); primary screening at 10 uM", "result": 0.02}]}
{"smiles": "C[C@@H]1CC[C@H]2[C@](C)(CO)[C@@H](O)CC[C@]2(C)[C@@]12CC[C@@](CO)(CCO)O2", "note": "[LAGOCHILIN]", "values": [{"measurement": "Inhibition (%)", "setting": "Cryptosporidium parvum", "result": 9.20, "unit": "%"}, {"measurement": "Cytotoxicity (%)", "setting": "HCT-8 host cells (Hs18S); [1]", "result": 34.1, "unit": "%"}, {"measurement": "Hs18S ΔCT", "setting": "HCT-8 host cells (Hs18S); primary screening at 10 uM", "result": 0.60}]}
{"smiles": "CC(=O)O[C@H]1CC[C@]2(C)C3=C(CC[C@H]2C1(C)C)[C@]1(C)CC[C@H]([C@H](C)CCC=C(C)C)[C@@]1(C)CC3", "note": "[LANOSTEROL ACETATE]", "values": [{"measurement": "Inhibition (%)", "setting": "Cryptosporidium parvum", "result": -3.78, "unit": "%"}, {"measurement": "Cytotoxicity (%)", "setting": "HCT-8 host cells (Hs18S); [1]", "result": -2.8, "unit": "%"}, {"measurement": "Hs18S ΔCT", "setting": "HCT-8 host cells (Hs18S); primary screening at 10 uM", "result": -0.04}]}
{"smiles": "Cc1occc(=O)c1O", "note": "[LARIXINIC ACID]", "values": [{"measurement": "Inhibition (%)", "setting": "Cryptosporidium parvum", "result": 59.78, "unit": "%"}, {"measurement": "Cytotoxicity (%)", "setting": "HCT-8 host cells (Hs18S); [1]", "result": 12.9, "unit": "%"}, {"measurement": "Hs18S ΔCT", "setting": "HCT-8 host cells (Hs18S); primary screening at 10 uM", "result": 0.20}]}
{"smiles": "C=C[C@@](C)(O)CC[C@H]1C(=C)C[C@H](O)[C@H]2C(C)(C)CCC[C@]12C", "note": "[LARIXOL]", "values": [{"measurement": "Inhibition (%)", "setting": "Cryptosporidium parvum", "result": 31.41, "unit": "%"}, {"measurement": "Cytotoxicity (%)", "setting": "HCT-8 host cells (Hs18S); [1]", "result": 2.2, "unit": "%"}, {"measurement": "Hs18S ΔCT", "setting": "HCT-8 host cells (Hs18S); primary screening at 10 uM", "result": 0.03}]}
{"smiles": "CC(C)CCC[C@@H](C)[C@H]1CC[C@H]2C3=CC[C@H]4C[C@@H](O)CC[C@]4(C)[C@H]3CC[C@]12C", "note": "[LATHOSTEROL]", "values": [{"measurement": "Inhibition (%)", "setting": "Cryptosporidium parvum", "result": -50.10, "unit": "%"}, {"measurement": "Cytotoxicity (%)", "setting": "HCT-8 host cells (Hs18S); [1]", "result": 21.4, "unit": "%"}, {"measurement": "Hs18S ΔCT", "setting": "HCT-8 host cells (Hs18S); primary screening at 10 uM", "result": 0.35}]}
